Results from patent publication US8946234B2, “Halogen-substituted compounds” (Bayer CropScience AG, priority 2008, dated 2015).

Assays:
[1] = logP by HPLC on a C18 phase inversion column, EEC Directive 79/831 Annex V.A8, method b) (HP1100, 5-95% acetonitrile in 1.70 min); assay type: physicochemical; details: HPLC phase inversion (reversed-phase) C18 column; HPLC method b), eluent acetonitrile/water with formic acid
Protocol: ^b) Note regarding the determination of the log P values and mass detection: The log P values given were determined in accordance with EEC Directive 79/831 Annex V.A8 by HPLC (High Performance Liquid Chromatography) on a phase inversion column (C18). HP1100; 50*4.6 Zorbax Eclipse Plus C18 1.8 micron; eluent A: acetonitrile (0.1% formic acid); eluent B: water (0.08% formic acid); linear gradient from 5% acetonitrile to 95% acetonitrile in 1.70 min, then 95% acetonitrile for a further 1.00 min; oven temperature 55° C.; flow: 2.0 ml/min. The mass detection is carried out via the mass detector Micromass ZQ2000 from Waters.

[2] = test system: Phaedon cochleariae; assay: Phaedon test (PHAECO spray treatment); assay type: in vivo; details: foliar, application rate 500 g/ha, sprayed Chinese cabbage leaf discs, mustard beetle larvae, 100% = all larvae killed, read-out: effect in %
Protocol: [table] To produce a suitable active ingredient preparation, part by weight of active ingredient is mixed with the stated amounts of solvents and emulsifier, and the concentrate is diluted to the desired concentration with emulsifier-containing water. Discs of Chinese cabbage leaves (Brassica pekinensis) are sprayed with an active ingredient preparation of the desired concentration and, after drying, populated with larvae of the mustard beetle (Phaedon cochleariae). After the desired time, the effect in % is determined. Here, 100% means that all of the beetle larvae have been killed; 0% means that no beetle larvae have been killed.

[3] = logP by HPLC on a C18 phase inversion column, EEC Directive 79/831 Annex V.A8, method a) (Agilent 1100, 10-95% acetonitrile in 4.25 min); assay type: physicochemical; details: read-out: logP
How it was run: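 Following EEC Directive 79/831 Annex V.A8, logP is obtained from retention on a 1.8 micron C18 column (50×4.6 mm) at 55 °C and 2.0 ml/min. Elution ran 10→95% acetonitrile (0.1% formic acid) against water (0.09% formic acid) in 4.25 min, held 1.25 min; mass detection used.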

[4] = HPLC phase inversion (reversed-phase) C18 column, HPLC method a), eluent acetonitrile/water with formic acid
[5] = HPLC phase inversion (reversed-phase) C18 column, HPLC, method a)

| chromatographic logP [1] | chromatographic logP [3, 4] | chromatographic logP [3, 5] | SMILES | pest or weed control at 500 g/ha [2] [%] |
| --- | --- | --- | --- | --- |
| – | 2.36 | – | O=C(NC1CC1)c1cc(NC(=O)c2cnc(Cl)nc2C(F)(F)F)ccc1Cl [Ib-1, 2-chloro-N-[4-chloro-3-(cyclopropylcarbamoyl)phenyl]-4-(trifluoromethyl)pyrimidine-5-carboxamide] | ≥ 80 |
| – | 2.76 | – | O=C(NC1CC1)c1cc(NC(=O)c2cnc(OCC(F)(F)F)nc2C(F)(F)F)ccc1Cl [Ib-2] | ≥ 80 |
| – | 2.92 | – | O=C(NC1CC1)c1cc(NC(=O)c2cnc(C(F)(F)C(F)(F)F)nc2C(F)F)ccc1Cl [Ib-27, N-[4-Chloro-3-(cyclopropylcarbamoyl)phenyl]-4-(difluoromethyl)-2-(pentafluoroethyl)pyrimidine-5-carboxamide] | ≥ 80 |

Further lines, the molecule ahead of its results:

| SMILES | chromatographic logP [1] | chromatographic logP [3, 4] | chromatographic logP [3, 5] | pest or weed control at 500 g/ha [2] [%] |
| --- | --- | --- | --- | --- |
| C#CCNC(=O)c1cc(NC(=O)c2c(C(F)(F)F)c(C(F)(F)C(F)(F)F)nn2C)ccc1Cl [Ik-3, N-[4-Chloro-3-(prop-2-yn-1-ylcarbamoyl)phenyl]-1-methyl-3-(pentafluoroethyl)-4-(trifluoromethyl)-1H-pyrazole-5-carboxamide] | 3.11 | – | – | ≥ 80 |
| Cn1nc(C(F)(F)C(F)(F)F)c(C(F)(F)F)c1C(=O)Nc1ccc(Cl)c(C(=O)NC2CC2)c1 [Ik-1, N-[4-Chloro-3-(cyclopropylcarbamoyl)phenyl]-1-methyl-3-(pentafluoroethyl)-4-(trifluoromethyl)-1H-pyrazole-5-carboxamide] | – | 3.34 | 3.34 | ≥ 80 |
| C=Cc1c(C(F)(F)C(F)(F)F)nn(C)c1C(=O)Nc1ccc(Cl)c(C(=O)NC2CC2)c1 [Ik-5, N-[4-Chloro-3-(cyclopropylcarbamoyl)phenyl]-1-methyl-3-(pentafluoroethyl)-4-ethenyl-1H-pyrazol-5-carboxamide] | – | 3.11 | 3.11 | ≥ 80 |
| Cn1nc(C(F)(F)C(F)(F)F)c(I)c1C(=O)Nc1ccc(Cl)c(C(=O)NC2CC2)c1 [Ik-4, N-[4-Chloro-3-(cyclopropylcarbamoyl)phenyl]-1-methyl-3-(pentafluoroethyl)-4-iodo-1H-pyrazole-5-carboxamide] | – | 3.16 | 3.15 | ≥ 80 |
| O=C(NC1CC1)c1cc(NC(=O)c2cnc(OCC(F)(F)F)cc2C(F)(F)F)ccc1Cl [Ij-1, N-[4-Chloro-3-(cyclopropylcarbamoyl)phenyl]-6-(2,2,2-trifluoroethoxy)-4-(trifluoromethyl)pyridine-3-carboxamide] | – | 3.02 | – | ≥ 80 |
